Patent US20160303095A1, “METHODS OF TREATING HEPATITIS B VIRUS” (Gilead Sciences, Inc., priority 2015, published 2016)
Like-named read-outs stand apart in the source and are kept apart here.

Key:
HBV = test: PHH screening protocol: HBsAg and HBeAg levels by MSD ELISA; assay type: cell-based, Hepatitis B Virus; settings: for EC50: Hepatitis B virus
Description: HBV antiviral activity was assessed in primary human hepatocytes (PHH) in a 96-well format. PHH were (Life Technologies, Chicago, 11) plated on collagen coated tissue culture plates using Plating Media containing William's Medium E supplemented with 1% Penicillin/Streptomycin, 4 μg/mL human recombinant insulin, 2 mM glutamax, 15 mM Hepes, 1 μM dexamethasone and 5% fetal bovine serum (Life Technologies, Cat#A12176-01 Life Technologies, Chicago, Ill.). After a 4-hour incubation at 37° C., cells were switched to Maintenance Media (Cat#CM4000-A15564 Life Technologies, Chicago, Ill.) containing William's Medium E supplemented with 0.5% Penicillin/Streptomycin, 6.25 μg/mL human recombinant insulin, 6.25 μg/mL human transferrin, 6.25 ng/mL selenous acid, 1.25 mg/mL bovine serum albumin, 5.35 μg/mL linoleic acid, 2 mM glutamax, 15 mM Hepes, 0.1 μM dexamethasone, 2% fetal bovine serum, and 2% DMSO (Cat#D2650 Sigma, St. Louis, Mo.). On the next day, cells were infected with approximately 500 genome equivalent of selected HBV clinical isolates (21P (GTA), 32P (GTA), 91P (GTA), AD38 (GTD), 65P (GTD) or 30P (GTE); ProteoGenex, Culver City, Calif.) per cell in Maintenance Media supplemented with 4% PEG 8000 (Cat#V3011 Promega, Madison, Wis.). After 24 hour incubation cells were washed three times with William's Medium E and fed with fresh Maintenance Media. Small molecule inhibitors targeting KDMs were serially diluted in Maintenance Media and added to cells at 3 days post infection (p.i.). Media with compounds was replenished every 2-3 days. Media collected on various days was used for determination of HBsAg and HBeAg levels by MSD ELISA, and HBV RNA by qPCR. All data were converted into percentages of the untreated control and non-linear regression was performed to calculate EC50 or CC50 values.

[1] = Alamar Blue cell viability assay; assay type: cell-based; settings: human; D 28; PHH donor 8181; virus 21p

Compound: CCOC(=O)c1ccnc(CNCC(=O)N(CC)CCN(C)C)c1 [Example 8]
- EC50 (HBV; 336 h, read-out: HBeAg EC50, virus 30P, PHH donor 4239, d 14, compound removed after 14 days of treatment): 4310 nM
- EC50 (HBV; 336 h, read-out: HBeAg EC50, virus 30P, PHH donor 4239, d 17, compound removed after 14 days of treatment): 141 nM
- EC50 (HBV; 336 h, read-out: HBeAg EC50, virus 30P, PHH donor 4239, d 20, compound removed after 14 days of treatment): 111 nM
- EC50 (HBV; 336 h, read-out: HBeAg EC50, virus 30P, PHH donor 4239, d 25, compound removed after 14 days of treatment): 15 nM
- EC50 (HBV; 336 h, read-out: HBeAg EC50, virus 30P, PHH donor 4239, d 31, compound removed after 14 days of treatment): 36 nM
- EC50 (HBV; 336 h, read-out: HBeAg EC50, virus 30P, PHH donor 8130, d 14, compound removed after 14 days of treatment): 318 nM
- EC50 (HBV; 336 h, read-out: HBeAg EC50, virus 30P, PHH donor 8130, d 17, compound removed after 14 days of treatment): 24 nM
- EC50 (HBV; 336 h, read-out: HBeAg EC50, virus 30P, PHH donor 8130, d 20, compound removed after 14 days of treatment): 20 nM
- EC50 (HBV; 336 h, read-out: HBeAg EC50, virus 30P, PHH donor 8130, d 25, compound removed after 14 days of treatment): 2 nM
- EC50 (HBV; 336 h, read-out: HBeAg EC50, virus 30P, PHH donor 8130, d 31, compound removed after 14 days of treatment): 2 nM
- EC50 (HBV; 336 h, read-out: HBeAg EC50, virus AD38, PHH donor 4239, d 14, compound removed after 14 days of treatment): > 15000 nM
- EC50 (HBV; 336 h, read-out: HBeAg EC50, virus AD38, PHH donor 4239, d 17, compound removed after 14 days of treatment): 1660 nM
- EC50 (HBV; 336 h, read-out: HBeAg EC50, virus AD38, PHH donor 4239, d 20, compound removed after 14 days of treatment): 670 nM
- EC50 (HBV; 336 h, read-out: HBeAg EC50, virus AD38, PHH donor 4239, d 25, compound removed after 14 days of treatment): 110 nM
- EC50 (HBV; 336 h, read-out: HBeAg EC50, virus AD38, PHH donor 4239, d 31, compound removed after 14 days of treatment): 200 nM
- EC50 (HBV; 336 h, read-out: HBeAg EC50, virus AD38, PHH donor 8130, d 14, compound removed after 14 days of treatment): 2420 nM
- EC50 (HBV; 336 h, read-out: HBeAg EC50, virus AD38, PHH donor 8130, d 17, compound removed after 14 days of treatment): 840 nM
- EC50 (HBV; 336 h, read-out: HBeAg EC50, virus AD38, PHH donor 8130, d 20, compound removed after 14 days of treatment): 190 nM
- EC50 (HBV; 336 h, read-out: HBeAg EC50, virus AD38, PHH donor 8130, d 25, compound removed after 14 days of treatment): 30 nM
- EC50 (HBV; 336 h, read-out: HBeAg EC50, virus AD38, PHH donor 8130, d 31, compound removed after 14 days of treatment): 10 nM
- EC50 (HBV; 336 h, read-out: HBsAg EC50, virus 30P, PHH donor 4239, d 14, compound removed after 14 days of treatment): > 15000 nM
- EC50 (HBV; 336 h, read-out: HBsAg EC50, virus 30P, PHH donor 4239, d 17, compound removed after 14 days of treatment): 207 nM
- EC50 (HBV; 336 h, read-out: HBsAg EC50, virus 30P, PHH donor 4239, d 20, compound removed after 14 days of treatment): 26 nM
- EC50 (HBV; 336 h, read-out: HBsAg EC50, virus 30P, PHH donor 4239, d 25, compound removed after 14 days of treatment): 28 nM
- EC50 (HBV; 336 h, read-out: HBsAg EC50, virus 30P, PHH donor 4239, d 31, compound removed after 14 days of treatment): 32 nM
- EC50 (HBV; 336 h, read-out: HBsAg EC50, virus 30P, PHH donor 8130, d 14, compound removed after 14 days of treatment): 1 nM
- EC50 (HBV; 336 h, read-out: HBsAg EC50, virus 30P, PHH donor 8130, d 17, compound removed after 14 days of treatment): 19 nM
- EC50 (HBV; 336 h, read-out: HBsAg EC50, virus 30P, PHH donor 8130, d 20, compound removed after 14 days of treatment): 3 nM
- EC50 (HBV; 336 h, read-out: HBsAg EC50, virus 30P, PHH donor 8130, d 25, compound removed after 14 days of treatment): 2 nM
- EC50 (HBV; 336 h, read-out: HBsAg EC50, virus 30P, PHH donor 8130, d 31, compound removed after 14 days of treatment): 2 nM
- EC50 (HBV; 336 h, read-out: HBsAg EC50, virus AD38, PHH donor 4239, d 14, compound removed after 14 days of treatment): 6300 nM
- EC50 (HBV; 336 h, read-out: HBsAg EC50, virus AD38, PHH donor 4239, d 17, compound removed after 14 days of treatment): 842 nM
- EC50 (HBV; 336 h, read-out: HBsAg EC50, virus AD38, PHH donor 4239, d 20, compound removed after 14 days of treatment): 300 nM
- EC50 (HBV; 336 h, read-out: HBsAg EC50, virus AD38, PHH donor 4239, d 25, compound removed after 14 days of treatment): 372 nM
- EC50 (HBV; 336 h, read-out: HBsAg EC50, virus AD38, PHH donor 4239, d 31, compound removed after 14 days of treatment): 152 nM
- EC50 (HBV; 336 h, read-out: HBsAg EC50, virus AD38, PHH donor 8130, d 14, compound removed after 14 days of treatment): 2010 nM
- EC50 (HBV; 336 h, read-out: HBsAg EC50, virus AD38, PHH donor 8130, d 17, compound removed after 14 days of treatment): 920 nM
- EC50 (HBV; 336 h, read-out: HBsAg EC50, virus AD38, PHH donor 8130, d 20, compound removed after 14 days of treatment): 81 nM
- EC50 (HBV; 336 h, read-out: HBsAg EC50, virus AD38, PHH donor 8130, d 25, compound removed after 14 days of treatment): 80 nM
- EC50 (HBV; 336 h, read-out: HBsAg EC50, virus AD38, PHH donor 8130, d 31, compound removed after 14 days of treatment): 12 nM
- EC50 (HBV; 408 h, read-out: HBsAg EC50, virus 21P (GTA), PHH 4239, day 17 p.i.): 700 nM
- EC50 (HBV; 408 h, read-out: HBsAg EC50, virus 21P (GTA), PHH 8130, day 17 p.i.): 200 nM
- EC50 (HBV; 408 h, read-out: HBsAg EC50, virus 21P (GTA), PHH 8181, day 17 p.i.): 20 nM
- EC50 (HBV; 408 h, read-out: HBsAg EC50, virus 30P (GTE), PHH 4239, day 17 p.i.): 300 nM
- EC50 (HBV; 408 h, read-out: HBsAg EC50, virus 30P (GTE), PHH 8130, day 17 p.i.): 200 nM
- EC50 (HBV; 408 h, read-out: HBsAg EC50, virus 30P (GTE), PHH 8181, day 17 p.i.): < 5 nM
- EC50 (HBV; 408 h, read-out: HBsAg EC50, virus 32P (GTA), PHH 4239, day 17 p.i.): 30 nM
- EC50 (HBV; 408 h, read-out: HBsAg EC50, virus 32P (GTA), PHH 8130, day 17 p.i.): 80 nM
- EC50 (HBV; 408 h, read-out: HBsAg EC50, virus 32P (GTA), PHH 8181, day 17 p.i.): < 2 nM
- EC50 (HBV; 408 h, read-out: HBsAg EC50, virus 65P (GTD), PHH 4239, day 17 p.i.): 300 nM
- EC50 (HBV; 408 h, read-out: HBsAg EC50, virus 65P (GTD), PHH 8130, day 17 p.i.): 2400 nM
- EC50 (HBV; 408 h, read-out: HBsAg EC50, virus 65P (GTD), PHH 8181, day 17 p.i.): < 2 nM
- EC50 (HBV; 408 h, read-out: HBsAg EC50, virus 91P (GTA), PHH 4239, day 17 p.i.): 60 nM
- EC50 (HBV; 408 h, read-out: HBsAg EC50, virus 91P (GTA), PHH 8130, day 17 p.i.): 30 nM
- EC50 (HBV; 408 h, read-out: HBsAg EC50, virus 91P (GTA), PHH 8181, day 17 p.i.): < 6 nM
- EC50 (HBV; 408 h, read-out: HBsAg EC50, virus AD38 (GTD), PHH 4239, day 17 p.i.): 2000 nM
- EC50 (HBV; 408 h, read-out: HBsAg EC50, virus AD38 (GTD), PHH 8130, day 17 p.i.): 1400 nM
- EC50 (HBV; 408 h, read-out: HBsAg EC50, virus AD38 (GTD), PHH 8181, day 17 p.i.): < 5 nM
- EC50 (HBV; read-out: EC50 values (HBsAg), PHH donors 4239 and 8130, across patient viruses): 30 to 2400 nM
- EC50 (HBV; read-out: HBeAg EC50, D 8, PHH donor 8181, virus 21p): > 50000 nM
- EC50 (HBV; read-out: HBeAg EC50, D 13, PHH donor 8181, virus 21p): 160 nM
- EC50 (HBV; read-out: HBeAg EC50, D 17, PHH donor 8181, virus 21p): < 20 nM
- EC50 (HBV; read-out: HBeAg EC50, D 22, PHH donor 8181, virus 21p): < 20 nM
- EC50 (HBV; read-out: HBeAg EC50, D 27, PHH donor 8181, virus 21p): < 20 nM
- EC50 (HBV; read-out: HBeAg EC50, D 31, PHH donor 8181, virus 21p): < 20 nM
- EC50 (HBV; read-out: HBeAg EC50, HBV-infected PHH): 188 nM
- EC50 (HBV; read-out: HBsAg EC50, D 8, PHH donor 8181, virus 21p): > 50000 nM
- EC50 (HBV; read-out: HBsAg EC50, D 13, PHH donor 8181, virus 21p): 150 nM
- EC50 (HBV; read-out: HBsAg EC50, D 17, PHH donor 8181, virus 21p): < 20 nM
- EC50 (HBV; read-out: HBsAg EC50, D 22, PHH donor 8181, virus 21p): < 20 nM
- EC50 (HBV; read-out: HBsAg EC50, D 27, PHH donor 8181, virus 21p): < 20 nM
- EC50 (HBV; read-out: HBsAg EC50, D 31, PHH donor 8181, virus 21p): < 20 nM
- EC50 (HBV; read-out: HBsAg EC50, HBV-infected PHH): 67 nM
- inhibition of HBV HBsAg and HBeAg secretion compared to untreated cells (HBV; PHH donor 8181): more than 10 fold
- time dependency of anti HBV activity (HBV; PHH donor 8181 infected with patient virus 21p (GTA)): time dependent
- CC50 at 28 day [1]: 20000 nM
